Measured values taken from patent US20070203091A1, “Methods and therapeutic compositions for improving liver, blood flow and skeletal muscle functions in advanced diseases and aging” (priority 2006, published 2007).

What was measured:
[1] = ATP pharmacokinetics: initial ATP release rate from red blood cells into blood plasma, Phase I study; format: in vivo, human
Protocol: The solution was administered by continuous intravenous infusions using an Ivac or similar infusion device through venous access in a peripheral vein. If venous access was a problem, either a Hickman catheter or its equivalent, or an Infusaport or its equivalent was inserted to provide vascular access.
The 50 μg/kg/min dose could be reduced to 25 μg/kg/min if adverse effects occurred. […] Succeeding infusions in that patient were at the infusion dose tolerated at the end of the previous treatment. If adverse events occurred in patients being infused at 25 μg/kg/min, the infusions were terminated and the patient received no additional infusions.

[2] = Cachexia markers Part II: blood TNF-alpha, Interleukin-6, Phase I study; format: in vivo, human
Source text: TNF-alpha is an acknowledged independent negative prognostic factor of morbidity and mortality in the elderly (30).

[3] = Karnofsky Performance Status, Phase I study; format: in vivo, human; details: for Karnofsky Performance Status, Change from Baseline, Mean / Karnofsky Performance Status, Change from Baseline, Median / Karnofsky Performance Status, Observed Values, Mean / Karnofsky Performance Status, Observed Values, Median: ITT
Source text: The present patient population was clinically deteriorating rapidly with four of the fifteen patients not meeting the protocol inclusion criteria and being granted exemptions (page 15-18). An amendment to the protocol had to be sought because Karnofsky Performance Status of some patients dropped between the screening date and the first pre-infusion date. Considering the clinical status of the present patient population at the start of the trial along with Karnofsky Performance Score being a surrogate end-point for Quality of Life in advanced, refractory, terminal cancers, these findings support claims reciting benefits to quality of life by claimed treatment in a human host in need thereof.

[4] = Stability of ATP drug product and infusion solution; format: physicochemical
Protocol: An example of a clinical procedure in the treatment of individuals in need thereof is as follows. After determination of baseline, pre-treatment vital signs, hemodynamic variables and blood chemistry, an ATP dose escalation procedure is initiated. ATP is provided as a sterile solution in single use vials. […] Storage of the clinical solution is at controlled refrigerated temperature (2° C.-6° C.). […] The concentration of the final sterile solution for the infusion is 8 mg/ml.
See attached AAI International Analytical Testing Report Aug. 2, 2001.

[5] = Week 1 (Infusion 1), baseline, N=15

SMILES: Nc1ncnc2c1ncn2[C@@H]1O[C@H](COP(=O)(O)OP(=O)(O)OP(=O)(O)O)[C@@H](O)[C@H]1O [ATP, adenosine 5′-triphosphate]
- Initial ATP Release Rates Mean ([1]; Week 1 (infusion 1), 4 hours into infusion): 33.407 nM/min
- Initial ATP Release Rates Mean ([1]; Week 1 (infusion 1), 8 hours (before the end)): 47.224 nM/min
- Initial ATP Release Rates Mean ([1]; Week 1 (infusion 1), 8.25 hours): 10.400 nM/min
- Initial ATP Release Rates Mean ([1]; Week 1 (infusion 1), 9 hours): 25.408 nM/min
- Initial ATP Release Rates Mean ([1]; Week 1 (infusion 1), 10 hours): 13.959 nM/min
- Initial ATP Release Rates Mean ([1]; Week 1 (infusion 1), 11 hours): 14.743 nM/min
- Initial ATP Release Rates Mean ([1]; Week 1 (infusion 1), 12 hours): 12.565 nM/min
- Initial ATP Release Rates Mean ([1]; Week 1 (infusion 1), 14 hours): 12.067 nM/min
- Initial ATP Release Rates Mean ([1]; Week 1 (infusion 1), 16 hours): 15.331 nM/min
- Initial ATP Release Rates Mean ([1]; Week 1 (infusion 1), 20 hours): 20.063 nM/min
- Initial ATP Release Rates Mean ([1]; Week 1 (infusion 1), 24 hours): 17.452 nM/min
- Initial ATP Release Rates Mean ([1]; Week 1 (infusion 1), Time 0 (pre-infusion)): 15.469 nM/min
- Initial ATP Release Rates Mean ([1]; Week 1 (infusion 1), […]): 41.353 nM/min
- Initial ATP Release Rates Mean ([1]; Week 3 (Infusion 3), 4 hours into infusion): 55.414 nM/min
- Initial ATP Release Rates Mean ([1]; Week 3 (Infusion 3), 8 hours before the end): 48.283 nM/min
- Initial ATP Release Rates Mean ([1]; Week 3 (Infusion 3), 8.25 hours): 13.400 nM/min
- Initial ATP Release Rates Mean ([1]; Week 3 (Infusion 3), 9 hours): 34.992 nM/min
- Initial ATP Release Rates Mean ([1]; Week 3 (Infusion 3), 10 hours): 27.342 nM/min
- Initial ATP Release Rates Mean ([1]; Week 3 (Infusion 3), 11 hours): 18.888 nM/min
- Initial ATP Release Rates Mean ([1]; Week 3 (Infusion 3), 12 hours): 14.660 nM/min
- Initial ATP Release Rates Mean ([1]; Week 3 (Infusion 3), 14 hours): 10.390 nM/min
- Initial ATP Release Rates Mean ([1]; Week 3 (Infusion 3), 16 hours): 10.223 nM/min
- Initial ATP Release Rates Mean ([1]; Week 3 (Infusion 3), 20 hours): 11.708 nM/min
- Initial ATP Release Rates Mean ([1]; Week 3 (Infusion 3), 24 hours): 15.880 nM/min
- Initial ATP Release Rates Mean ([1]; Week 3 (Infusion 3), Time 0 (pre-infusion)): 18.228 nM/min
- Initial ATP Release Rates Mean ([1]; Week 3 (Infusion 3), […]): 38.780 nM/min
- Initial ATP Release Rates Mean ([1]; Week 8 (infusion 8), 4 hours into infusion): 28.700 nM/min
- Initial ATP Release Rates Mean ([1]; Week 8 (infusion 8), 8 hours (before the end)): 27.930 nM/min
- Initial ATP Release Rates Mean ([1]; Week 8 (infusion 8), 9 hours): 20.167 nM/min
- Initial ATP Release Rates Mean ([1]; Week 8 (infusion 8), 10 hours): 5.803 nM/min
- Initial ATP Release Rates Mean ([1]; Week 8 (infusion 8), 11 hours): 15.700 nM/min
- Initial ATP Release Rates Mean ([1]; Week 8 (infusion 8), 12 hours): 14.150 nM/min
- Initial ATP Release Rates Mean ([1]; Week 8 (infusion 8), 14 hours): 19.620 nM/min
- Initial ATP Release Rates Mean ([1]; Week 8 (infusion 8), 16 hours): 11.680 nM/min
- Initial ATP Release Rates Mean ([1]; Week 8 (infusion 8), 20 hours): 14.520 nM/min
- Initial ATP Release Rates Mean ([1]; Week 8 (infusion 8), 24 hours): 16.200 nM/min
- Initial ATP Release Rates Mean ([1]; Week 8 (infusion 8), Time 0 (pre-infusion)): 10.967 nM/min
- Initial ATP Release Rates Mean ([1]; Week 8 (infusion 8), […]): 11.267 nM/min
- average increases in Initial ATP Release Rates (from Red Blood Cells) ([1]; patients 502-505, time 0 to 8 hours): 200-400%
- Interleukin-6 levels ([2]; upon ATP treatment): not stabilized
- levels of blood tumor necrosis factor-alpha (TNF-alpha) ([2]; week 13): stabilize
- Karnofsky Performance Status ([3]; ITT patient population): stabilize
- Karnofsky Performance Status, Change from Baseline, Mean [3, 5]: 0.0%
- Karnofsky Performance Status, Change from Baseline, Median [3, 5]: 0.0%
- Karnofsky Performance Status, Observed Values, Mean [3, 5]: 78.0%
- Karnofsky Performance Status, Observed Values, Median [3, 5]: 80.00%
- Karnofsky Performance Status, Change from Baseline, Mean ([3]; Week 2 (Infusion 2), N=14): −2.1%
- Karnofsky Performance Status, Change from Baseline, Median ([3]; Week 2 (Infusion 2), N=14): 0.0%
- Karnofsky Performance Status, Observed Values, Mean ([3]; Week 2 (Infusion 2), N=14): 77.1%
- Karnofsky Performance Status, Observed Values, Median ([3]; Week 2 (Infusion 2), N=14): 75.0%
- Karnofsky Performance Status, Change from Baseline, Mean ([3]; Week 3 (Infusion 3), N=13): −2.3%
- Karnofsky Performance Status, Change from Baseline, Median ([3]; Week 3 (Infusion 3), N=13): 0.0%
- Karnofsky Performance Status, Observed Values, Mean ([3]; Week 3 (Infusion 3), N=13): 76.9%
- Karnofsky Performance Status, Observed Values, Median ([3]; Week 3 (Infusion 3), N=13): 80.0%
- Karnofsky Performance Status, Change from Baseline, Mean ([3]; Week 4 (Infusion 4), N=11): −0.9%
- Karnofsky Performance Status, Change from Baseline, Median ([3]; Week 4 (Infusion 4), N=11): 0.0%
- Karnofsky Performance Status, Observed Values, Mean ([3]; Week 4 (Infusion 4), N=11): 78.2%
- Karnofsky Performance Status, Observed Values, Median ([3]; Week 4 (Infusion 4), N=11): 80.0%
- Karnofsky Performance Status, Change from Baseline, Mean ([3]; Week 5 (Infusion 5), N=10): −7.0%
- Karnofsky Performance Status, Change from Baseline, Median ([3]; Week 5 (Infusion 5), N=10): 0.0%
- Karnofsky Performance Status, Observed Values, Mean ([3]; Week 5 (Infusion 5), N=10): 71.0%
- Karnofsky Performance Status, Observed Values, Median ([3]; Week 5 (Infusion 5), N=10): 75.0%
- Karnofsky Performance Status, Change from Baseline, Mean ([3]; Week 6 (Infusion 6), N=9): −4.4%
- Karnofsky Performance Status, Change from Baseline, Median ([3]; Week 6 (Infusion 6), N=9): 0.0%
- Karnofsky Performance Status, Observed Values, Mean ([3]; Week 6 (Infusion 6), N=9): 74.4%
- Karnofsky Performance Status, Observed Values, Median ([3]; Week 6 (Infusion 6), N=9): 80.0%
- Karnofsky Performance Status, Change from Baseline, Mean ([3]; Week 7 (Infusion 7), N=7): −4.3%
- Karnofsky Performance Status, Change from Baseline, Median ([3]; Week 7 (Infusion 7), N=7): 0.0%
- Karnofsky Performance Status, Observed Values, Mean ([3]; Week 7 (Infusion 7), N=7): 72.9%
- Karnofsky Performance Status, Observed Values, Median ([3]; Week 7 (Infusion 7), N=7): 70.0%
- Karnofsky Performance Status, Change from Baseline, Mean ([3]; Week 8 (Infusion 8), N=7): −5.7%
- Karnofsky Performance Status, Change from Baseline, Median ([3]; Week 8 (Infusion 8), N=7): −10.0%
- Karnofsky Performance Status, Observed Values, Mean ([3]; Week 8 (Infusion 8), N=7): 71.4%
- Karnofsky Performance Status, Observed Values, Median ([3]; Week 8 (Infusion 8), N=7): 70.0%
- Karnofsky Performance Status, Change from Baseline, Mean ([3]; Week 10 (Follow-up), N=6): −5.0%
- Karnofsky Performance Status, Change from Baseline, Median ([3]; Week 10 (Follow-up), N=6): −5.0%
- Karnofsky Performance Status, Observed Values, Mean ([3]; Week 10 (Follow-up), N=6): 73.3%
- Karnofsky Performance Status, Observed Values, Median ([3]; Week 10 (Follow-up), N=6): 70.0%
- Karnofsky Performance Status, Change from Baseline, Mean ([3]; Week 13 (Follow-up), N=5): −4.0%
- Karnofsky Performance Status, Change from Baseline, Median ([3]; Week 13 (Follow-up), N=5): 0.0%
- Karnofsky Performance Status, Observed Values, Mean ([3]; Week 13 (Follow-up), N=5): 76.0%
- Karnofsky Performance Status, Observed Values, Median ([3]; Week 13 (Follow-up), N=5): 80.0%
- Karnofsky Performance Status ([3]; patients 502-505, week 1 (pre-dose) to week 13 (follow-up)): Small increases
- 3 month stability data ([4]; 3 months under routine storage conditions): remains stable at 3 months under
- 15 months stability testing ([4]; refrigerated ATP (5° C.)): 99.7 % of label
- stability of the final ATP solutions ([4]; room temperature, infusion solution 8 mg/ml): at least 96 hours
